# Laboratory results from paper PMC8620791, “Inhibitory Effects of Sulfonamide Derivatives on the β-Carbonic Anhydrase (MpaCA) from Malassezia pachydermatis, a Commensal, Pathogenic Fungus Present in Domestic Animals” (International Journal of Molecular Sciences, 2021).
# Columns and labels:
# MreCA = biological target: MreCA; set-up: method as in PMID 31963335; conditions: stopped-flow CO2 hydration; given for comparison; ref [26]; cited from earlier work
# [1] = biological target: T1, β-CA (MpaCA) from Malassezia pachydermatis (Malassezia pachydermatis, UniProt A0A0M8MPA4); test: biochemical; conditions: recombinant enzyme, stopped-flow CO2 hydration, mean from three assays, errors ±5–10%, 15 min preincubation
# T1 sequence (A0A0M8MPA4 1-242): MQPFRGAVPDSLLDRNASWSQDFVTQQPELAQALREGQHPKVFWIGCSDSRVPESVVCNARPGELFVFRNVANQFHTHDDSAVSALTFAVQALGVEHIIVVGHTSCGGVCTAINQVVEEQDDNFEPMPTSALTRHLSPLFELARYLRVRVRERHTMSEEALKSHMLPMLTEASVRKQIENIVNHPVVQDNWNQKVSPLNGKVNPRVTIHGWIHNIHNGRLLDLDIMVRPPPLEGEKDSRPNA
# Experimental: An applied photophysics stopped-flow instrument was used for assaying the CA-catalyzed CO2 hydration activity [49].
# At least six measurements of the original 5–10% reaction were used to assess the initial velocity for each inhibitor. The uncatalyzed rates were identically determined and detracted from the total observed rates. Stock inhibitor solutions (10–100 mM) were prepared in distilled, deionized water, and dilutions up to 0.01 mM were performed with the buffer test. […] The inhibition constants, which represent the mean from at least three different determinations, were obtained by the non-linear least-squares methods using PRISM 6 and the Cheng–Prusoff equation, as reported earlier [50]. […] All salts/small molecules were of the highest purity available from Sigma-Aldrich (Milan, Italy).
# MgCA = biological target: MgCA; set-up: method as in PMID 31963335; conditions: stopped-flow CO2 hydration; given for comparison; ref [26]; cited from earlier work
Structure (SMILES),Ki (MreCA),Ki [1],Ki (MgCA)
"NS(=O)(=O)c1ccc(S(=O)(=O)Nc2cccc3c(Cl)c[nH]c23)cc1 [IND, Indisulam E7070, reference compound]",< 1 µM,4.82 µM,
"NC(N)=Nc1nc(CSCCC(N)=NS(N)(=O)=O)cs1 [FAM, Famotidine, reference compound]",,4.91 µM,
NCc1ccc(S(N)(=O)=O)cc1 [compound 5],> 10 µM,2.18 µM,
NS(=O)(=O)c1ccc(CCO)cc1 [compound 17],> 10 µM,,0.06 µM
"NS(=O)(=O)c1cc(Cl)c(Cl)c(S(N)(=O)=O)c1 [DCP, Dichlorophenamide, reference compound]",3.06 µM,,0.34 µM
"Cc1onc(-c2ccccc2)c1-c1ccc(S(N)(=O)=O)cc1 [VLX, Valdecoxib, reference compound]",0.77 µM,0.63 µM,
Nc1cc(Cl)c(S(N)(=O)=O)cc1S(N)(=O)=O [compound 12],> 10 µM,2.74 µM,
NS(=O)(=O)c1ccc(O)cc1 [compound 15],> 10 µM,0.61 µM,0.23 µM
Cn1nc(S(N)(=O)=O)sc1=N [compound 14],> 10 µM,0.58 µM,> 10 µM
NS(=O)(=O)c1ccc(CCNS(=O)(=O)c2ccc([N+](=O)[O-])cc2CO)cc1 [compound 21],7.4 µM,0.27 µM,0.11 µM
NS(=O)(=O)c1cc(Cl)cc(Cl)c1O [compound 10],> 10 µM,2.01 µM,0.54 µM
"CC(=O)/N=c1/sc(S(N)(=O)=O)nn1C [MZA, Methazolamide, reference compound]",,1.72 µM,
"Cc1ccc(-c2cc(C(F)(F)F)nn2-c2ccc(S(N)(=O)=O)cc2)cc1 [CLX, Celecoxib, reference compound]",1.4 µM,0.06 µM,> 10 µM
Nc1ccc(S(N)(=O)=O)cc1Cl [compound 8],> 10 µM,1.68 µM,0.12 µM
"NS(=O)(=O)c1cc2c(cc1Cl)NCNS2(=O)=O [HCT, Hydrochlorothiazide, reference compound]",8.5 µM,0.26 µM,
Nc1ccc(S(N)(=O)=O)cc1F [compound 7],4.59 µM,2.48 µM,0.11 µM
Nc1ccc(S(=O)(=O)Nc2nnc(S(N)(=O)=O)s2)cc1 [compound 20],0.91 µM,0.61 µM,0.23 µM
"CCN[C@H]1CN(CCCOC)S(=O)(=O)c2sc(S(N)(=O)=O)cc21 [BRZ, Brinzolamide, reference compound]",0.7 µM,0.55 µM,> 10 µM
"NS(=O)(=O)c1nnc(NS(=O)(=O)c2ccccc2)s1 [BZA, Benzolamide, reference compound]",7.15 µM,0.12 µM,
Nc1ccc(S(=O)(=O)NCCc2ccc(S(N)(=O)=O)cc2)cc1 [compound 24],,1.27 µM,

Structure (SMILES),Ki (MreCA),Ki [1],Ki (MgCA)
NCCc1ccc(S(N)(=O)=O)cc1 [compound 6],> 10 µM,,
"CCN1CCCC1CNC(=O)c1cc(S(N)(=O)=O)ccc1OC (stereo not drawn) [SLP, Sulpiride, reference compound]",4.85 µM,,
Nc1ccc(S(N)(=O)=O)cc1 [compound 2],4.62 µM,,0.24 µM
"NS(=O)(=O)Cc1noc2ccccc12 [ZNS, Zonisamide, reference compound]",,2.42 µM,
NS(=O)(=O)c1cccc(S(N)(=O)=O)c1 [compound 3],> 10 µM,1.5 µM,0.15 µM
"O=C1NS(=O)(=O)c2ccccc21 [SAC, Saccharin, reference compound]",,1.03 µM,
Nc1cccc(S(N)(=O)=O)c1 [compound 1],,1.99 µM,
NS(=O)(=O)c1ccc(CO)cc1 [compound 16],6.51 µM,1.06 µM,0.1 µM
Nc1ccc(S(=O)(=O)Nc2ccc(S(N)(=O)=O)cc2)cc1 [compound 22],3.74 µM,1.37 µM,0.09 µM
"CC1(C)O[C@@H]2[C@@H](CO[C@@]3(COS(N)(=O)=O)OC(C)(C)O[C@@H]23)O1 [TPM, Topiramate, reference compound]",3.83 µM,0.48 µM,1.46 µM
Nc1nccc(Nc2ccc(S(N)(=O)=O)cc2)n1 [compound 19],7.79 µM,0.59 µM,> 10 µM
"NS(=O)(=O)NCCNc1nonc1C(=NO)Nc1ccc(F)c(Br)c1 [EPA, Epacadostat, reference compound]",,0.63 µM,
"NS(=O)(=O)c1ccc(N2CCCCS2(=O)=O)cc1 [SLT, Sulthiame, reference compound]",0.67 µM,1.88 µM,
Nc1nnc(S(N)(=O)=O)s1 [compound 13],,1.09 µM,
Nc1ccc(S(N)(=O)=O)cc1Br [compound 9],> 10 µM,,0.34 µM
Nc1cc(C(F)(F)F)c(S(N)(=O)=O)cc1S(N)(=O)=O [compound 11],6.76 µM,,
Nc1ccc(S(=O)(=O)NCc2ccc(S(N)(=O)=O)cc2)cc1 [compound 23],> 10 µM,0.26 µM,> 10 µM
Cc1ccc(S(N)(=O)=O)cc1 [compound 4],,1.09 µM,
NS(=O)(=O)c1ccc(C(=O)O)cc1 [compound 18],> 10 µM,,0.06 µM
